Reference: ChEMBL document CHEMBL3407397, “Effect of size and N-terminal residue characteristics on bacterial cell penetration and antibacterial activity of the proline-rich peptide Bac7” (J Med Chem, 2015)
In brackets after ≈: the same amount, converted by molar mass. Activity calls are given as the source filed them. No cut-off for these calls is given here. Non-standard residues stand in square brackets, D forms with d. Residues, ends and D or L forms follow the SMILES beside them. Cit = NC(=O)NCCC[C@H](N)C(=O)O

Assays:
Escherichia coli [1] = experiment: Antimicrobial activity against Escherichia coli ATCC 25922 incubated for 18 hrs at 37 degC by broth microdilution method; format: functional; details: ATCC 25922, 18 h
Escherichia coli [2] = experiment: Antimicrobial activity against O-antigen lacking LPS containing wild type Escherichia coli BW25113 incubated for 18 hrs at 37 degC by broth microdilution method; format: functional; details: BW25113, 18 h
Escherichia coli [3] = experiment: Antimicrobial activity against Escherichia coli HB101 incubated for 18 hrs at 37 degC by broth microdilution method; format: functional; details: HB101, 18 h
Escherichia coli [4] = experiment: Drug uptake in O-antigen lacking LPS containing wild type Escherichia coli BW25113 up to 32 uM incubated for 60 mins by propidium iodide staining based cytofluorimetric method; format: ADME, organism-based; details: in vivo, 1 h
Escherichia coli [5] = experiment: Antimicrobial activity against delta-waaG deletion mutant containing Escherichia coli BW25113 incubated for 18 hrs at 37 degC by broth microdilution method; format: functional; details: BW25113, 18 h
Escherichia coli [6] = experiment: Bactericidal activity against delta-waaG deletion mutant containing wild type Escherichia coli BW25113 assessed as bacterial killing at 4 uM incubated for 3.5 hrs; format: functional, organism-based
Escherichia coli [7] = experiment: Bactericidal activity against O-antigen lacking LPS containing wild type Escherichia coli BW25113 assessed as bacterial killing at 4 uM incubated for 3.5 hrs; format: functional, organism-based
Escherichia coli [8] = experiment: Antimicrobial activity against delta-sbmA deletion mutant containing Escherichia coli BW25113 incubated for 18 hrs at 37 degC by broth microdilution method; format: functional; details: BW25113, 18 h
Escherichia coli [9] = experiment: Drug uptake in O-antigen lacking LPS containing wild type Escherichia coli BW25113 at 1 uM up to 3.5 hrs in presence of trypan blue quencher; format: ADME, organism-based; details: in vivo
Escherichia coli [10] = experiment: Bacteriostatic activity against O-antigen lacking LPS containing wild type Escherichia coli BW25113 at 4 uM incubated for 3.5 hrs; format: functional, organism-based
Escherichia coli [11] = experiment: Drug uptake in delta-waaG deletion mutant containing Escherichia coli BW25113 at 4 uM up to 3.5 hrs in presence of trypan blue quencher; format: ADME, organism-based; details: in vivo
Escherichia coli [12] = experiment: Bacteriostatic activity against delta-waaG deletion mutant containing wild type Escherichia coli BW25113 at 4 uM incubated for 3.5 hrs; format: functional, organism-based

Row | SMILES | MIC (Escherichia coli [1]) [µM] | MIC (Escherichia coli [2]) [µM] | MIC (Escherichia coli [3]) [µM] | Drug uptake (Escherichia coli [4]) | MIC (Escherichia coli [5]) [µM] | Activity (Escherichia coli [6]) | Activity (Escherichia coli [7]) | MIC (Escherichia coli [8]) [µM] | Drug uptake (Escherichia coli [9]) | Activity (Escherichia coli [10]) | Drug uptake (Escherichia coli [11]) | Activity (Escherichia coli [12])
1 | CC[C@H](C)[C@H](NC(=O)[C@H](CCCNC(=N)N)NC(=O)[C@@H](N)CCCNC(=N)N)C(=O)N[C@@H](CCCNC(=N)N)C(=O)N1CCC[C@H]1C(=O)N[C@@H](CCCNC(=N)N)C(=O)N1CCC[C@H]1C(=O)N1CCC[C@H]1C(=O)N[C@@H](CCCNC(=N)N)C(=O)N[C@@H](CC(C)C)C(=O)N1CCC[C@H]1C(=O)N[C@@H](CCCNC(=N)N)C(=O)N1CCC[C@H]1C(=O)N[C@@H](CCCNC(=N)N)C(=O)N1CCC[C@H]1C(=O)N[C@@H](CCCNC(=N)N)C(=O)N1CCC[C@H]1C(=O)N[C@@H](CC(C)C)C(=O)N1CCC[C@H]1C(=O)N[C@@H](Cc1ccc(O)cc1)C(=O)N1CCC[C@H]1C(=O)N[C@@H](CCCNC(=N)N)C(=O)N1CCC[C@H]1C(=O)O | 0.5 (≈ 1.45 µg/mL) | 1 (≈ 2.9 µg/mL) | 0.5 (≈ 1.45 µg/mL) | Not Active | 0.5 (≈ 1.45 µg/mL) | Active | Active | 8 (≈ 23.2 µg/mL) |  |  |  | 
2 | CC[C@H](C)[C@H](NC(=O)[C@H](CCCNC(N)=O)NC(=O)[C@@H](N)CCCNC(N)=O)C(=O)N[C@@H](CCCNC(=N)N)C(=O)N1CCC[C@H]1C(=O)N[C@@H](CCCNC(=N)N)C(=O)N1CCC[C@H]1C(=O)N1CCC[C@H]1C(=O)N[C@@H](CCCNC(=N)N)C(=O)N[C@@H](CC(C)C)C(=O)N1CCC[C@H]1C(=O)N[C@@H](CCCNC(=N)N)C(=O)N1CCC[C@H]1C(=O)N[C@@H](CCCNC(=N)N)C(=O)N1CCC[C@H]1C(=O)N[C@@H](CCCNC(=N)N)C(=O)N1CCC[C@H]1C(=O)N[C@@H](CC(C)C)C(=O)N1CCC[C@H]1C(=O)N[C@@H](Cc1ccc(O)cc1)C(=O)N1CCC[C@H]1C(=O)N[C@@H](CCCNC(=N)N)C(=O)N1CCC[C@H]1C(=O)O (H-[Cit][Cit]IRPRPPRLPRPRPRPLPYPRP-OH) | 32 (≈ 92.8 µg/mL) | 32 (≈ 92.8 µg/mL) |  |  | 8 (≈ 23.2 µg/mL) |  |  | > 64 | Active | Active | Active | Active
